These results are taken from patent publication EP0906100B1, “USE OF 5-HT 1A? RECEPTOR ANTAGONISTS FOR THE TREATMENT OF URINARY INCONTINENCE” (RECORDATI S.A., priority 1996, dated 1997).

Test [1] has as its system rhythmic bladder voiding contractions. Kind of test: Volume-induced rhythmic bladder voiding contractions in anaesthetized rats. In kind it is in vivo. To be noted: for AMPLITUDE mm Hg before treatment / FREQUENCY No. contr./15 min before treatment: baseline; for AMPLITUDE mm Hg before treatment / AMPLITUDE mm Hg after treatment: animals with frequency reduction <50%; for AMPLITUDE mm Hg before treatment / FREQUENCY No. contr./15 min before treatment / AMPLITUDE mm Hg after treatment / FREQUENCY No. contr./15 min after treatment: mean±S.E.; for BLADDER CONTRACTIONS Disappearance time: duration of bladder quiescence, mean (S.E. in next cell); for ED (10 min disappearance of contractions) / ED50: Rattus norvegicus, iv; for ED (10 min disappearance of contractions): extrapolated dose inducing 10 min of disappearance of the contractions, linear regression; for ED50: read-out: ED50 FREQUENCY (and 95% confidence limits), quantal criterion (change ≥30% relative to basal value). Here is the method: Female Sprague Dawley rats weighing 225-275 g (Crl: CD° BR, Charles River Italia) were used. The animals were housed with free access to food and water and were maintained on a forced 12 h alternating light-dark cycle at 22-24°C for at least one week, except during the experiment. The activity on the rhythmic bladder voiding contractions was evaluated according to the method of Dray (J. Pharmcol. Methods, 13:157, 1985), with some modifications as in Guarneri (Phannacol. Res., 27:173, 1993). […] The catheter was tied in place with a ligature around the external urethral orifice and was connected with conventional pressure transducers (Statham P23 ID/P23 XL). […] The bladder was then filled via the recording catheter by incremental volumes of warm (37°C) saline until reflex bladder voiding contractions occurred (usually 0.8-1.5 ml). Two parameters were recorded from the cystometrogram: the frequency of voiding contractions, calculated by counting the number of peaks/15 min of observation, and the mean amplitude of these contractions (mean height of the peaks in mmHg) in the same time period. For intravenous (i. v. ) injection of bioactive compounds, a PE 50 polyethylene tubing filled with physiological saline was inserted into the jugular vein.
Bioactivity was assessed in individual animals (using 6-10 rats per dose), by recording the number and height of the peaks for 15 min after drug injection and comparing them with those previously recorded for 15 min after the intravenous administration of vehicle alone. […] The statistical significance of changes in frequency and amplitude before and after treatment was assessed by Student's t test for paired data. Changes showing a probability P<0.01 were considered significant.
An all-or-none criterion was also used to compare bioactivity in terms of ED50 values. Rats showing a treatment-related change of ≥30% relative to the basal value were considered to be positive. Quantal dose-response curves and ED50 values were evaluated by the method of Bliss (J. Pharm. Pharmacol., 11:192, 1938).
The rapid distension of the urinary bladder in urethane-anaesthetized rats produced a series of rhythmic bladder voiding contractions whose characteristics have been described (Maggie et al., Brain Res., 380, 83, 1986; Maggi, et al., J. Pharmacol. Exp. Ther., 230, 500, 1984). The frequency of these contractions is related to the sensory afferent arm of reflex micturition and to the integrity of the micturition centre, while their amplitude is a property of the efferent arm of the reflex (Maggi et al., J. Pharmacol. Meth., 15, 157, 1986; Maggi et al., Brain Res.. 415, 1, 1987; Maggi et al., Naun. Schmied. Arch. Pharmacol., 332, 276, 1986; Maggi et al., J. Urol., 136, 696, 1986).

The next test has as its target α1-adrenergic receptor. Kind of test: [3H]prazosin binding (α1-receptors), rat cerebral cortices. To be noted: 0.35 nM [3H]prazosin, read-out: Binding affinity for the α1-adrenergic receptor, Ki. As to the method: [^3H]prazosin binding (α1-receptors):
Rat cerebral cortices were homogenized in 50 volumes of ice-cold 50 mM Tris-HCl pH 7.4. The homogenates were centrifuged at 48,000 x g for 10 minutes, and the pellets were resuspended in the same volume of ice-cold buffer, centrifuged, and resuspended two more times. The final pellets were resuspended in 100 volumes of 50 mM Tris-HCl, pH 7.4, containing 0.1 % ascorbic acid and 10 µM pargyline. […] Non-specific binding was determined in the presence of 10 µM phentolamine. The incubations were terminated by rapid filtration through Whatman GF/B filters using a Brandel cell harvester, after which the filters were washed with 3x3 ml of ice-cold buffer. The radioactivity retained on the filters was determined by liquid scintillation counting.

In test [2] the test system is pre-synaptic 5-HT1A receptor. Briefly: Antagonism of hypothermia induced by 8-OH-DPAT in mice. In kind it is in vivo. The conditions noted are these: s.c., hypothermia induced by 0.5 mg/kg s.c. 8-OH-DPAT. As to the method:
Antagonism of hypothermia induced by 8-OH-DPAT in mice:
The antagonistic effect of 5-HT1A receptor antagonists on hypothermia induced by 8-OH-DPAT was evaluated by the method of Moser (Moser, Eur. J. Pharmacol., 193, 165, 1991) with minor modifications.
Male CD-1 mice (28-38 g) obtained from Charles River (Italy) were housed in a climate-controlled room (temperature 22 ± 2°C; humidity 55 ± 15%) and maintained on a 12 h light/dark cycle with free access to food and water. On the day of experiment, mice were placed singly in clear plastic boxes under the same ambient conditions. Body temperature was measured by the insertion of a temperature probe (Termist TM-S, LSI) into the rectum to a depth of 2 cm. Rectal temperature was measured immediately prior to subcutaneous injection of the test compound and 30 min later. All animals then received 8-OH-DPAT (0.5 mg/kg s.c.) and their temperature was measured 30 min later. For each animal, temperature changes were calculated with respect to pretreatment values and the mean values were calculated for each treatment group.

Where [3] appears, read: i.v., inhibition of frequency of rhythmic bladder voidings (ED50).

Take `O=C(C1CCCCC1)N(CCN1CCN(c2cccc3[nH]ccc23)CC1)c1ccccn1` [Compound B, N-{2-[4-(4-Indolyl)-1-piperazinyl]-ethyl}-N-(2-pyridyl)-cyclohexanecarboxamide]: the “AMPLITUDE mm Hg before treatment” value in test [1] (0.3 µg/kg i.v. group) stood at 31.0±3.7 mm Hg; in test [1] (1 µg/kg i.v. group), 26.5±4.3 mm Hg; in test [1] (3 µg/kg i.v. group) it was 33.7±2.4 mm Hg; in test [1] (10 µg/kg i.v. group), 19.0 mm Hg. Further, the “FREQUENCY No. contr./15 min before treatment” value in test [1] (0.3 µg/kg i.v. group) is on record as 10.7±1.4 No. contr./15 min; in test [1] (1 µg/kg i.v. group), 11.7±1.5 No. contr./15 min; in test [1] (3 µg/kg i.v. group), 9.7±0.8 No. contr./15 min; in test [1] (10 µg/kg i.v. group), 11.7±1.7 No. contr./15 min; in test [1] (30 µg/kg i.v. group) it was 12.0±1.1 No. contr./15 min. In addition, the “AMPLITUDE mm Hg after treatment” value stood at 27.7±4.1 mm Hg in test [1] (0.3 µg/kg i.v.), 22.7±5.1 mm Hg in test [1] (1 µg/kg i.v.), 25.3±1.2 mm Hg in test [1] (3 µg/kg i.v.) and 17.0 mm Hg in test [1] (10 µg/kg i.v.). Moreover, the “BLADDER CONTRACTIONS Disappearance time” value is given as 1.10 min in test [1] (0.3 µg/kg i.v.); 4.33 min in test [1] (1 µg/kg i.v.); 7.58 min in test [1] (3 µg/kg i.v.); 10.00 min in test [1] (10 µg/kg i.v.); 8.85 min in test [1] (30 µg/kg i.v.). Moreover, the “FREQUENCY No. contr./15 min after treatment” value in test [1] (0.3 µg/kg i.v.) came out at 11.3±1.7 No. contr./15 min; in test [1] (1 µg/kg i.v.), 8.7±1.3 No. contr./15 min; in test [1] (3 µg/kg i.v.), 4.7±1.1 No. contr./15 min; in test [1] (10 µg/kg i.v.), 4.2±0.9 No. contr./15 min; in test [1] (30 µg/kg i.v.), 4.5±1.4 No. contr./15 min. Moreover, in test [1], the ED (10 min disappearance of contractions) was 9 µg/kg. In addition, the ED50 in test [1] (i.v.) turned out to be 1 µg/kg. Moreover, the “fold more active than NAN-190” value in test [1] (setting [3]) was 46 fold. Further, in test [1] (setting [3]), the “fold more active than flavoxate” value is given as 2650 fold. At α1-adrenergic receptor, the Ki was determined as 0.458 µM. In addition, the “ID50 (95%) C.L., antagonistic activity for the pre-synaptic 5-HT1A receptor” value in test [2] is 1.9 (1.0-3.7) µg/kg s.c.
On to `COc1ccccc1N1CCN(CCCCN2C(=O)c3ccccc3C2=O)CC1` [NAN-190, 1-(2-methoxyphenyl)-4-[4-(2-phthalimido)-butyl]-piperazine], for which the “AMPLITUDE mm Hg before treatment” value in test [1] (30 µg/kg i.v. group) came out at 30.2±3.7 mm Hg; in test [1] (100 µg/kg i.v. group), 22.5±1.7 mm Hg; in test [1] (300 µg/kg i.v. group), 24.1±1.8 mm Hg. The figures for the “FREQUENCY No. contr./15 min before treatment” value in test [1] (30 µg/kg i.v. group), in test [1] (100 µg/kg i.v. group) and in test [1] (300 µg/kg i.v. group) were 13.5±1.2 No. contr./15 min, 13.6±1.0 No. contr./15 min and 11.8±1.1 No. contr./15 min, respectively. The “AMPLITUDE mm Hg after treatment” value in test [1] (30 µg/kg i.v.) was determined as 26.1±3.1 mm Hg; in test [1] (100 µg/kg i.v.), 17.3±2.9 mm Hg; in test [1] (300 µg/kg i.v.), 17.6±1.7 mm Hg. In addition, the “BLADDER CONTRACTIONS Disappearance time” value in test [1] (30 µg/kg i.v.) stood at 1.80 min; in test [1] (100 µg/kg i.v.), 6.34 min; in test [1] (300 µg/kg i.v.), 5.47 min. The “FREQUENCY No. contr./15 min after treatment” value is on record as 11.8±1.5 No. contr./15 min in test [1] (30 µg/kg i.v.), 6.4±1.1 No. contr./15 min in test [1] (100 µg/kg i.v.) and 6.6±1.1 No. contr./15 min in test [1] (300 µg/kg i.v.). Also, the ED (10 min disappearance of contractions) in test [1] was above 300 µg/kg. Also, the ED50 in test [1] (i.v.) came out at 46 µg/kg. Moreover, the Ki on α1-adrenergic receptor is 0.0048 µM. In test [2], the “ID50 (95%) C.L., antagonistic activity for the pre-synaptic 5-HT1A receptor” value was “not active”.

A word on the ED50: it is the dose at which the effect has come halfway, by size or by number of responders. As usually defined, the Ki is a measure of affinity in units of concentration, obtained from inhibition or displacement.
